This note sets out measurements from patent US10259810B2, “N-sulfonylated pyrazolo[3,4-b]pyridin-6-carboxamides and method of use” (AbbVie S.à.r.l., priority 2015, dated 2019).

The target of assay [1] is T1, ΔF508-CFTR (Homo sapiens, UniProt P13569, DEL508-508).
T1 construct: host or cells: CFBE41o-, doxycycline-inducible
As to the kind of experiment: CFTR cell surface levels using HRP-tagged ΔF508-CFTR expressing CFBE cells, intrinsic corrector capacity. The class given is cell-based. Also on record: % Activation: concentration or dose not given beside the values. The settings on record: HRP-tagged ΔF508-CFTR expressing CFBE41o- cells, compound alone (intrinsic corrector capacity), 20 hours at 33° C.; for EC50: read-out: EC50. The method, boiled down: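 Surface ΔF508-CFTR was measured as HRP chemiluminescence from an extracellular-loop-4 tag, expressed as percent activity between DMSO and a […] corrector control.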

For assay [2], the target named is T1, ΔF508-CFTR. As to the kind of experiment: CFTR cell surface levels using HRP-tagged ΔF508-CFTR expressing CFBE cells, in the presence of a co-corrector. It is filed as cell-based. The conditions noted are these: HRP-tagged ΔF508-CFTR CFBE cells, in the presence of 3 μM co-corrector; for EC50: read-out: EC50. A digest of the protocol: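 Chemiluminescent read-out of surface HRP (15 min, dark) after PBS washes. Activity is normalized as 100×(sample−DMSO)/(3 μM co-corrector alone−DMSO).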

T1 sequence (P13569 with tags, fused parts or gaps DEL508-508): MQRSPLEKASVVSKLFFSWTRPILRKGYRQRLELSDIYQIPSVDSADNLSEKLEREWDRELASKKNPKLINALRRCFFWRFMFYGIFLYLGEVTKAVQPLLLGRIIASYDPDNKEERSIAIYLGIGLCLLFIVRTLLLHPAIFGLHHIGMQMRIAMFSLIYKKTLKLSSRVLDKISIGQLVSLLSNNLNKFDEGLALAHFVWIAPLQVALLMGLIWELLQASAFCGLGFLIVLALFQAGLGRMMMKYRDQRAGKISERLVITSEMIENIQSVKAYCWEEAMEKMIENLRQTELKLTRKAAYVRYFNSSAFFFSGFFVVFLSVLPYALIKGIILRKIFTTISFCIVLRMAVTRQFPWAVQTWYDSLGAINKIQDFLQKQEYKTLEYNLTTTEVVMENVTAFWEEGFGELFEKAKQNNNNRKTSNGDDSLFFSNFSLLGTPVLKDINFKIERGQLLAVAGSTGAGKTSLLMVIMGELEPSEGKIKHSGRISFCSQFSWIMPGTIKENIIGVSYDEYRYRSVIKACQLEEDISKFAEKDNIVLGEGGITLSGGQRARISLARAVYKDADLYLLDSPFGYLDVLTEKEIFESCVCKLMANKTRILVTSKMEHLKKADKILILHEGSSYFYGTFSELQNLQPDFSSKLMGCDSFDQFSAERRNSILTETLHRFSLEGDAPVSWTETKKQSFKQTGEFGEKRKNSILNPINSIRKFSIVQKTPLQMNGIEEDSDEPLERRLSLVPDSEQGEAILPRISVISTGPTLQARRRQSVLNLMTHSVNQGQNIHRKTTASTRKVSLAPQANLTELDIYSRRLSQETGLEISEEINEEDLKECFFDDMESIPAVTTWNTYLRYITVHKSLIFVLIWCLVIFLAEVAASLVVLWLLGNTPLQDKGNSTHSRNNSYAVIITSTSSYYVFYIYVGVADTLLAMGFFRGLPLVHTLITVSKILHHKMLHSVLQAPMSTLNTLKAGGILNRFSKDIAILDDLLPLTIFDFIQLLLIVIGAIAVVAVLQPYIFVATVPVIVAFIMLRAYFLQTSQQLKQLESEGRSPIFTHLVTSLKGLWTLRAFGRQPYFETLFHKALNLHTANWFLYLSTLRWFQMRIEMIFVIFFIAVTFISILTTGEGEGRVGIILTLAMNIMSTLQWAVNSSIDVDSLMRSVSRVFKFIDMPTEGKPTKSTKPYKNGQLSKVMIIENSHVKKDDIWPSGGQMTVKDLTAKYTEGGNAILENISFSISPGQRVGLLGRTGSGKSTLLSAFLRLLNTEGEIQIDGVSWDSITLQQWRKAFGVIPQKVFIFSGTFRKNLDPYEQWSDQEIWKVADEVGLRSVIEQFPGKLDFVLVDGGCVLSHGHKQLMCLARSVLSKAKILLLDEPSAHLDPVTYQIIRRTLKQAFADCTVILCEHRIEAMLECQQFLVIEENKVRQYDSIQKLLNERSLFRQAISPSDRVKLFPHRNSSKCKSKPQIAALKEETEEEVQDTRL

The EC50 is the midpoint of the concentration-response curve. Turning to `CC(C)Oc1nn(C2CCCCC2)c2nc(C(=O)NS(C)(=O)=O)cc(-c3ccc(C(=O)N4CC(N(C)C)C4)cc3)c12` [Compound 640, 1-cyclohexyl-4-{4-[3-(dimethylamino)azetidine-1-carbonyl]phenyl}-N-(methanesulfonyl)-3-[(propan-2-yl)oxy]-1H-pyrazolo[3,4-b]pyridine-6-carboxamide], the entries for the “% Activation” value in assay [1] and in assay [2] were 203.62% and 416.48%, respectively. Moreover, the EC50 turned out to be 175 nM in assay [1] and 107 nM in assay [2].
The matching figures for `CC(C)Oc1nn(C2CCCCC2)c2nc(C(=O)NS(C)(=O)=O)cc(-c3ccc(CN4CCN(C)CC45COC5)cc3)c12` [Compound 641, 1-cyclohexyl-N-(methanesulfonyl)-4-{4-[(8-methyl-2-oxa-5,8-diazaspiro[3.5]nonan-5-yl)methyl]phenyl}-3-[(propan-2-yl)oxy]-1H-pyrazolo[3,4-b]pyridine-6-carboxamide]: 205.35%, 443.12%, 74.9 nM and 46.3 nM.
`CCN1CCN(Cc2ccc(-c3cc(C(=O)NS(C)(=O)=O)nc4c3c(OC(C)C)nn4C3CCCCC3)cc2)CC1` [Compound 642, 1-cyclohexyl-4-{4-[(4-ethylpiperazin-1-yl)methyl]phenyl}-N-(methanesulfonyl)-3-[(propan-2-yl)oxy]-1H-pyrazolo[3,4-b]pyridine-6-carboxamide]: in assay [1], the “% Activation” value stood at 222% and the half-maximal effective concentration (EC50) came to 235 nM. For the same molecule, in assay [2], the “% Activation” value is reported as 430.9% and the concentration giving a half-maximal response (EC50) turned out to be 97.3 nM.
As to `CC(C)Oc1nn(C2CCCCC2)c2nc(C(=O)NS(C)(=O)=O)cc(-c3ccc(CN4CCC(N(C)C)CC4)cc3)c12` [Compound 643, 1-cyclohexyl-4-(4-{[4-(dimethylamino)piperidin-1-yl]methyl}phenyl)-N-(methanesulfonyl)-3-[(propan-2-yl)oxy]-1H-pyrazolo[3,4-b]pyridine-6-carboxamide], in assay [1], the “% Activation” value is reported as 181.65% and the concentration giving a half-maximal response (EC50) came to 506 nM. Moreover, in assay [2], the “% Activation” value amounted to 445.25% and the concentration giving a half-maximal response (EC50) amounted to 497 nM.
The matching figures for `COC1CCN(C2CCN(c3cc(C(=O)NS(C)(=O)=O)nc4c3c(OC(C)C)nn4-c3ccc(F)cc3)CC2)CC1` [Compound 644, 1-(4-fluorophenyl)-N-(methanesulfonyl)-4-(4-methoxy[1,4'-bipiperidin]-1'-yl)-3-[(propan-2-yl)oxy]-1H-pyrazolo[3,4-b]pyridine-6-carboxamide]: 266.9%, 253 nM, 529.95% and 160 nM.
In the case of `CNS(=O)(=O)NC(=O)c1cc(N2CCC(N3CCC(F)CC3)CC2)c2c(C3CCC3)nn(-c3ccc(F)cc3)c2n1` [Compound 650, 3-cyclobutyl-4-(4-fluoro[1,4'-bipiperidin]-1'-yl)-1-(4-fluorophenyl)-N-(methylsulfamoyl)-1H-pyrazolo[3,4-b]pyridine-6-carboxamide], in assay [1], the “% Activation” value was determined as 385.4% and the 50% effective concentration (EC50) turned out to be 115 nM. Besides, in assay [2], the “% Activation” value was 592.45% and the EC50 amounted to 96.4 nM.
`CC(C)N1CCN(C2CCN(c3cc(C(=O)NS(=O)(=O)N4CCC4)nc4c3c(C3CCC3)nn4-c3ccc(F)cc3)CC2)CC1` [Compound 651, N-(azetidine-1-sulfonyl)-3-cyclobutyl-1-(4-fluorophenyl)-4-{4-[4-(propan-2-yl)piperazin-1-yl]piperidin-1-yl}-1H-pyrazolo[3,4-b]pyridine-6-carboxamide]: the figures for the “% Activation” value in assay [1] and in assay [2] were 317.85% and 532.4%, respectively. Also, the EC50 in assay [1] was found to be 206 nM; in assay [2] it was 128 nM.
On to `CN(C)S(=O)(=O)NC(=O)c1cc(N2CCC(N3CCOCC3)CC2)c2c(C3CCC3)nn(-c3cccc(OC(F)F)c3)c2n1` [Compound 652, 3-cyclobutyl-1-[3-(difluoromethoxy)phenyl]-N-(dimethylsulfamoyl)-4-[4-(morpholin-4-yl)piperidin-1-yl]-1H-pyrazolo[3,4-b]pyridine-6-carboxamide], for which, in assay [1], the “% Activation” value is 289.03% and the EC50 is 84.1 nM. For the same molecule, in assay [2], the “% Activation” value is listed as 499.65% and the EC50 is 24.9 nM.
For `CN(C(=O)c1cc(N2CCC(N3CCOCC3)CC2)c2c(C3CCC3)nn(-c3ccccc3)c2n1)S(C)(=O)=O` [Compound 656, 3-cyclobutyl-N-(methanesulfonyl)-N-methyl-4-[4-(morpholin-4-yl)piperidin-1-yl]-1-phenyl-1H-pyrazolo[3,4-b]pyridine-6-carboxamide], the “% Activation” value in assay [1] was 102.63%; in assay [2] it was 289.68%.
For the molecule `COCC1CCN(c2cc(C(=O)N(C)S(C)(=O)=O)nc3c2c(C2CCC2)nn3-c2ccccc2)CC1` [Compound 657, 3-cyclobutyl-N-(methanesulfonyl)-4-[4-(methoxymethyl)piperidin-1-yl]-N-methyl-1-phenyl-1H-pyrazolo[3,4-b]pyridine-6-carboxamide], in assay [1], the “% Activation” value came out at 98% and the EC50 amounted to 281 nM. Further, in assay [2], the “% Activation” value is reported as 270.75% and the EC50 was determined as 197 nM.
Turning to `CCS(=O)(=O)N(C)C(=O)c1cc(N2CCC(N3CCOCC3)CC2)c2c(C3CCC3)nn(-c3ccccc3)c2n1` [Compound 658, 3-cyclobutyl-N-(ethanesulfonyl)-N-methyl-4-[4-(morpholin-4-yl)piperidin-1-yl]-1-phenyl-1H-pyrazolo[3,4-b]pyridine-6-carboxamide], the “% Activation” value in assay [1] stood at 99.025%; in assay [2], 270.6%.
In the case of `CN1CCCN(C(=O)c2cc(N3CCC(CN4CCCC4)CC3)c3c(C4CCC4)nn(-c4ccccc4)c3n2)S1(=O)=O` [Compound 660, 2-(3-cyclobutyl-1-phenyl-4-{4-[(pyrrolidin-1-yl)methyl]piperidin-1-yl}-1H-pyrazolo[3,4-b]pyridine-6-carbonyl)-6-methyl-1λ^6,2,6-thiadiazinane-1,1-dione], in assay [1], the “% Activation” value came to 34.92% and the EC50 was determined as 932 nM. Also, in assay [2], the “% Activation” value is 172.1% and the EC50 is 235 nM.
The matching figures for `O=C(c1cc(N2CCC(CN3CCCC3)CC2)c2c(C3CCC3)nn(-c3ccccc3)c2n1)N1CCCS1(=O)=O` [Compound 661, 2-(3-cyclobutyl-1-phenyl-4-{4-[(pyrrolidin-1-yl)methyl]piperidin-1-yl}-1H-pyrazolo[3,4-b]pyridine-6-carbonyl)-1λ^6,2-thiazolidine-1,1-dione]: 67.125%, 155 nM, 227.45% and 135 nM.
The like results for `CN(C(=O)c1cc(N2CCC(CN3CCCC3)CC2)c2c(C3CCC3)nn(-c3ccccc3)c2n1)S(C)(=O)=O` [Compound 662, 3-cyclobutyl-N-(methanesulfonyl)-N-methyl-1-phenyl-4-{4-[(pyrrolidin-1-yl)methyl]piperidin-1-yl}-1H-pyrazolo[3,4-b]pyridine-6-carboxamide] were, in that order, 134.35%, 124 nM, 346.65% and 104 nM.
